Assay results reported in patent publication US7008545B2, “Synergistic biocidal mixtures” (Hercules Incorporated, priority 2002, dated 2006).

Columns and labels:
[1] = system: artificial bacterial consortium; test: Dose protocol, bacterial growth inhibition (O.D. 650 nm) in synthetic white water, concurrent fed strategy; format: cell-based; settings: for ppm BIT / ppm BNPD / ppm DBDCB / ppm DBNPA / ppm DCOI / ppm DGH / ppm DIDAC / ppm Dithiol / ppm Glut / ppm MBT: alone or with AmBr; for ppm Sulfone: concentration of Sulfone at 50% inhibition
Protocol: A measured amount of ammonium bromide activated with sodium hypochlorite and a measured amount of a non-oxidizing biocide were added to a suspension of bacteria. The effectiveness of the combination of the biocides is determined by measuring growth or lack thereof after an appropriate incubation time.
(§1) The efficacy of the active materials and blends was determined using a dose protocol. The actives were evaluated in synthetic white water with pH values of 5.5 and 8.0. The materials were tested against an artificial bacterial consortium containing approximately equal numbers of six bacterial strains. Although the test strains are representative of organisms present in paper mill systems, the effect is not limited to these bacteria. Two of the strains were Klebsiella pneumonia (ATCC 13883) and Pseudomonas aeruginosa (ATCC 15442). The other four strains were isolated from papermill systems and have been identified as Curtobacterium flaccumfaciens, Burkholderia cepacia, Bacillus maroccanus, and Pseudomonas glathei. Each strain was inoculated at 37° C. overnight, then suspended in sterile saline. Equal volumes of each strain were then combined to prepare the consortium. The bacterial consortium was distributed into the wells of a microtiter plate in the presence and absence of various concentrations of the active materials. The microtiter plates were incubated at 37° C. Optical density (O.D.) readings at 650 nm were taken initially (t0) and after time 4 hours (t4) of incubation.
(§2) The raw data was converted to “bacterial growth inhibition precentages” according to the following formula: % Inhibition=[(a−b)÷a]*100 where: • a=(O.D. of control at tn)−(O.D. of control at t0) • b=(O.D. of treatment at tn)−(O.D. of treatment at t0)
(§3) The inhibition values can be plotted versus dosage for each active and the particular blend. […] In the examples (tables) below, the I50 values are expressed as parts per million (ppm) of active material.
(§4) The synergism index (SI) was calculate by the equations described by F. C. Kull, P. C. Eisman, H. D. Sylwestrowicz, and R. L. Mayer (1961), Applied Microbiology 9, 538–541. The values are based on the amount needed to achieve a specified end point. The end point selected for these studies was 50% inhibition of bacterial growth. Synergy Index (SI)=(QA÷Qa)+(QB÷Qb) where: • QA=quantity of compound A in mixture, producing the end point • Qa=quantity of compound A, acting alone, producing the end point • QB=quantitiy of compound B in mixture, producing the end point • Qb=quantity of compound B, acting alone, producing the end point
(§5) If SI is less than 1, synergism exists; if SI is greater than 1, antagonism exists; if SI is equal to 1, an additive effect exists.

[2] = system: artificial bacterial consortium; test: Dose protocol, bacterial growth inhibition (O.D. 650 nm) in synthetic white water, sequential fed strategy, one hour delay between the additions; format: cell-based; settings: for ppm DBNPA: alone or with AmBr; for ppm MBT: concentration of MBT at 50% inhibition; for ppm Sulfone: concentration of Sulfone at 50% inhibition
Protocol: A measured amount of ammonium bromide activated with sodium hypochlorite was added to a suspension of bacteria and the cell suspension incubated for a selected time after which a measured amount of a selected non-oxidizing biocide was then added to the suspension. The effectiveness of the combination of biocides was determined by measuring growth or lack thereof after an additional appropriate incubation time.
A measured amount of a selected non-oxidizing biocide was added to a suspension of bacteria and the cell suspension was incubated for a selected time after which a measured amount of ammonium bromide activated with sodium hypochlorite was then added to the suspension. The effectiveness of the combination of biocides was determined by measuring growth or lack thereof after an additional appropriate incubation time.
as §1, §2, §3, §4, §5

[3] = pH 5.5, amount giving 50% inhibition
[4] = pH 8.0, amount giving 50% inhibition
[5] = DBNPA & AmBr, pH 5.5, end point 50% inhibition
[6] = DBNPA & AmBr, pH 8.0, end point 50% inhibition
[7] = pH 5.5, alone or with AmBr at the stated ratio
[8] = pH 8.0, alone or with AmBr at the stated ratio
[9] = Sulfone & AmBr, at 50% inhibition, pH 5.5
[10] = Sulfone & AmBr, at 50% inhibition, pH 8.0

In the case of O=c1[nH]sc2ccccc12 [BIT, 1,2-Benzisothiazolin-3-one], the “Synergy Index” value ([1]; BIT & AmBr, pH 5.5, end point 50% inhibition) was 1.00, the “Synergy Index” value ([1]; BIT & AmBr, pH 8.0, end point 50% inhibition) was 1.00 and the “ppm BIT” value [1, 3] was 1.62 ppm. The “ppm BIT” value [1, 4] was 3.59 ppm.
For O=[N+]([O-])C(Br)(CO)CO [BNPD, 2-Bromo-2-nitropropane-1,3-diol], the “Synergy Index” value ([1]; BNPD & AmBr, pH 5.5, end point 50% inhibition) was 1.00, the “Synergy Index” value ([1]; BNPD & AmBr, pH 8.0, end point 50% inhibition) was 1.00 and the “ppm BNPD” value [1, 3] was 1.16 ppm. For the same molecule, the “ppm BNPD” value [1, 4] was 1.34 ppm.
For N#CCCC(Br)(C#N)CBr (centres unmarked) [DBDCB, 1,2-Dibromo-2,4-dicyanobutane], the “Synergy Index” value ([1]; DBDCB & AmBr, pH 5.5, end point 50% inhibition) was 1.00, the “Synergy Index” value ([1]; DBDCB & AmBr, pH 8.0, end point 50% inhibition) was 1.00 and the “ppm DBDCB” value [1, 3] was 2.70 ppm. For the same molecule, the “ppm DBDCB” value [1, 4] was 1.85 ppm.
In the case of N#CC(Br)(Br)C(N)=O [DBNPA, 2,2-Dibromo-3-nitrilopropionamide], the “Synergy Index” value [1, 5] was 1.00, the “Synergy Index” value [1, 6] was 1.00 and the “ppm DBNPA” value [1, 3] was 3.08 ppm. For the same molecule, the “ppm DBNPA” value [1, 4] was 2.86 ppm, the “Synergy Index” value [2, 5] was 1.00 and the “Synergy Index” value [2, 6] was 1.00. For the same molecule, the “ppm DBNPA” value [2, 3] was 3.09 ppm and the “ppm DBNPA” value [2, 4] was 2.33 ppm.
With CCCCCCCCn1sc(Cl)c(Cl)c1=O [DCOI, 4,5-Dichloro-2-n-octyl-3(2H)-isothiazolinone] the “Synergy Index” value ([1]; DCOI & AmBr, pH 5.5, end point 50% inhibition) was 1.00, the “Synergy Index” value ([1]; DCOI & AmBr, pH 8.0, end point 50% inhibition) was 1.00 and the “ppm DCOI” value [1, 3] was 0.39 ppm. The “ppm DCOI” value [1, 4] was 1.49 ppm.
With CCCCCCCCCCCCNC(=N)N.Cl [DGH, N-Dodecylguanidine hydrochloride] the “Synergy Index” value ([1]; DGH & AmBr, pH 5.5, end point 50% inhibition) was 1.00, the “Synergy Index” value ([1]; DGH & AmBr, pH 8.0, end point 50% inhibition) was 1.00 and the “ppm DGH” value [1, 3] was 3.11 ppm. For the same molecule, the “ppm DGH” value [1, 4] was 1.84 ppm.
With CCCCCCCCCC[N+](C)(C)CCCCCCCCCC.[Cl-] [DIDAC, Didecyl dimethyl ammonium chloride] the “Synergy Index” value ([1]; DIDAC & AmBr, pH 5.5, end point 50% inhibition) was 1.00, the “Synergy Index” value ([1]; DIDAC & AmBr, pH 8.0, end point 50% inhibition) was 1.00 and the “ppm DIDAC” value [1, 3] was 1.82 ppm. The “ppm DIDAC” value [1, 4] was 1.62 ppm.
With O=c1ssc(Cl)c1Cl [Dithiol, 4,5-Dichloro-1,2-dithiol-3-one] the “Synergy Index” value ([1]; Dithiol & AmBr, pH 5.5, end point 50% inhibition) was 1.00, the “Synergy Index” value ([1]; Dithiol & AmBr, pH 8.0, end point 50% inhibition) was 1.00 and the “ppm Dithiol” value [1, 3] was 0.63 ppm. For the same molecule, the “ppm Dithiol” value [1, 4] was 0.84 ppm.
O=CCCCC=O [Glut, Glutaraldehyde] was tested, and the “Synergy Index” value ([1]; Glut & AmBr, pH 5.5, end point 50% inhibition) was 1.00, the “Synergy Index” value ([1]; Glut & AmBr, pH 8.0, end point 50% inhibition) was 1.00 and the “ppm Glut” value [1, 3] was 2.06 ppm. The “ppm Glut” value [1, 4] was 6.68 ppm.
N#CSCSC#N [MBT, Methylene bisthiocyanate] was tested, and the “Synergy Index” value ([1]; MBT & AmBr, pH 5.5, end point 50% inhibition) was 1.00, the “Synergy Index” value ([1]; MBT & AmBr, pH 8.0, end point 50% inhibition) was 1.00 and the “ppm MBT” value [1, 3] was 0.36 ppm. For the same molecule, the “ppm MBT” value [1, 4] was 0.71 ppm, the “Synergy Index” value ([2]; MBT & AmBr, at 50% inhibition, pH 5.5) was 1.00 and the “Synergy Index” value ([2]; MBTC & AmBr, at 50% inhibition, pH 8.0) was 1.00. For the same molecule, the “ppm MBT” value [2, 7] was 0.38 ppm and the “ppm MBT” value [2, 8] was 0.73 ppm.
O=S(=O)(C(Cl)(Cl)Cl)C(Cl)(Cl)Cl [Sulfone, bis(trichloromethyl)sulfone] was tested, and the “Synergy Index” value [1, 9] was 1.00, the “Synergy Index” value [1, 10] was 1.00 and the “ppm Sulfone” value [1, 7] was 1.87 ppm. For the same molecule, the “ppm Sulfone” value [1, 8] was 8.42 ppm, the “Synergy Index” value [2, 9] was 1.00 and the “Synergy Index” value [2, 10] was 1.00. The “ppm Sulfone” value [2, 7] was 4.44 ppm and the “ppm Sulfone” value [2, 8] was 10.25 ppm.
